# According to BindingDB's records for doi:10.1021/np200492k (Seoul National University, 2011):
# pIC50: −log10 of the molar value.
# Experiments:
# [1] = biological target: Isocitrate lyase (Candida albicans, UniProt Q9P8Q7); test: Inhibition of Candida albicans isocitrate lyase
# [2] = biological target: T1, Sortase family protein (Staphylococcus aureus, UniProt Q9S446); test: Inhibition of recombinant Staphylococcus aureus ATCC 6538p sortase lacking the N-terminal membrane anchor domain expressed in Escherichia coli cells TOP10 using Dabcyl-QALPETGEE-Edans substrate measured after 1 hr by fluorescence S13 spectrophotometry
# T1 sequence (Q9S446 whole entry): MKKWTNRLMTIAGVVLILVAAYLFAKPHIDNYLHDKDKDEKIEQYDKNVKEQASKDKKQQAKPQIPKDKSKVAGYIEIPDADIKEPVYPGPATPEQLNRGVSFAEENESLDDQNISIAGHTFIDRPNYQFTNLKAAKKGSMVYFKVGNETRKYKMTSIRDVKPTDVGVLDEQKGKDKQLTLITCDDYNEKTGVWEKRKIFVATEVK
# Sequence of Isocitrate lyase (Q9P8Q7 whole entry, the tested form may be a part): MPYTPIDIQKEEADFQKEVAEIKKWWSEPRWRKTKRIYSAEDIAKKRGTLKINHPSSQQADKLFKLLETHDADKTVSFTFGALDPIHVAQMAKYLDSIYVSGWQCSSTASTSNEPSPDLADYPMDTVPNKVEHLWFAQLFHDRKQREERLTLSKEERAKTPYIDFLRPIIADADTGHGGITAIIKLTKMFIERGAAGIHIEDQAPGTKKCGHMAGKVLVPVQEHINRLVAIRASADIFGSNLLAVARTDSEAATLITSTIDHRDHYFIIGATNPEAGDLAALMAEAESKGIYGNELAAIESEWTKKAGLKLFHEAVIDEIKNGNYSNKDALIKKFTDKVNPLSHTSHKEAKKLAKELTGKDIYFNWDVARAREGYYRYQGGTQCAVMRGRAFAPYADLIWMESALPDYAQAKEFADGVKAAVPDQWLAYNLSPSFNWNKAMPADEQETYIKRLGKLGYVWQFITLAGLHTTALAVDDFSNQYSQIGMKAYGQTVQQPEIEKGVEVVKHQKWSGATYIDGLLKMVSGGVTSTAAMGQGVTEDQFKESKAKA
Structure (SMILES),pIC50 [1],pIC50 [2]
CC1(C)CCC[C@]2(C)[C@H]3CC/C(=C\OS(=O)(=O)O)[C@H](CCc4ccoc4)[C@@]3(C)CC[C@@H]12,4.77,
O=C(O)c1cc[c]([Hg][OH])cc1,,3.94
